Reference: patent publication US20140235545A1, “The use of HCV immunogenic peptide or a derivative thereof in the prevention or treatment of arthritis” (priority 2011, published 2014)
Entries after “also recorded” stand apart in the source; their conditions may differ. No end group written: not given here.

Test system: combined collagen-adjuvant induced arthritis (calf type II collagen in combination with Freund's complete adjuvant)
Assay: Protective effect of peptide A on combined collagen-adjuvant induced arthritis in rats
Type: in vivo, SD rats
Conditions: for ankle joint swelling value: X±SD; for ankle joint swelling value / Lesion scoring ( X ± SD), joint lesion severity: n=10; for inhibition rate of ankle joint swelling: vs model group; for Lesion scoring ( X ± SD), joint lesion severity / state of joint synovial tissue (HE sections): 32nd day; for Lesion scoring ( X ± SD), joint lesion severity: left rear ankle joint histopathology, lower score = milder
From the text: SPF-level SD rats, each weighting 180 g˜220 g, with male and female each in half, provided by Experimental Animal Center of Chinese Academy of Military Medical.
Peptide with the following sequence is used: GQTYTSG (hereinafter referred to as peptide A), which is synthesized by solid phase peptide synthesis method using 413A automatic peptide synthesizer (available from Perkin Elmer Corporation), the detailed synthetic steps is described in Example 1 of PCT/CN2006/001176. The peptide was to be dissolved in physiological saline when used.
SD rats, with male and female each in half, were randomly divided into five groups with 10 rats in each group, respectively are model group (employing physiological saline, calf type II collagen and Freund's complete adjuvant); control group (employing the same volume of physiological saline as the model group); peptide A high, medium and low dose groups (employing calf type II collagen, Freund's complete adjuvant and peptide A, wherein each group is given different doses of peptide A, respectively are 174 μg/kg·d, 87 μg/kg·d and 43.5 μg/kg·d, peptide A is dissolved in physiological saline to form peptide A solution with desired concentration). Peptide A solution in each dose was administered by subcutaneous injection, 0.1 ml of peptide A solution per 100 g body weight of rats. The control group employed the same amount of physiological saline as that of the peptide A solution (0.1 ml of physiological saline per 100 g body weight of rats).
10 mg of calf type II collagen was dissolved into 5 ml 0.1 mol/L of acetic acid solution, and then the resulting solution was placed in a refrigerator at 4° C. overnight, the next day, the solution was mixed with Freund's complete adjuvant in a volume ratio of 1:1, the resulting mixture is sucked and discharged repeatedly by a syringe, until the mixture was emulsified into an emulsion completely. Each group rats were administered according to the following manner. These rats were normally fed every day during the administration.
On the 1st day, except the control group, for rats of other groups (the model group and the peptide A high, medium and low dose groups), 0.5 ml of the emulsion (prepared by calf type II collagen and Freund's complete adjuvant as above) was subcutaneously injected into the base of the tail of every rat, and the injection site is pressed slightly for 30 s so that the emulsion was completely absorbed. On the 8th day, emulsion injection is conducted again in the same way, 0.5 ml for every rat.
From the 2nd day (including this day), the rats of peptide A high, medium and low dose groups each were administered with corresponding dose of peptide A. Then, they were subcutaneously injected with corresponding dose of peptide A for one time every other day, a total of 15 times; at the same time, the rats of the control group and the model group were subcutaneously injected the same amount of physiological saline as that of peptide A for the high, medium and low dose groups every other day, a total of 15 times.
Measurement for the experimental results was conducted as follows. Firstly, before administration to rats of each group, left rear ankle circumference of each rat was measured by a flexible rule as a base value, and then circumference of left rear ankle with inflammation of each rat was measured at the 4th, 8th, 12th, 16th, 20th, 24th, 28th, and 32nd day, respectively. Swelling value obtained by circumference after inflammation minus circumference before inflammation was used to observe changes of primary and secondary inflammation of combined collagen-adjuvant induced rats.
Secondly, at the 32nd day, rats of each group were killed, and their left rear foot ankle joints ware quickly taken out, fixed in 10% formalin and then embedded in paraffin after decalcification, sectioned and stained with HE. […]

[1] = high dose 174 μg/kg·d s.c., the 4th day
[2] = high dose 174 μg/kg·d s.c., the 8th day
[3] = high dose 174 μg/kg·d s.c., the 12th day
[4] = high dose 174 μg/kg·d s.c., the 16th day
[5] = high dose 174 μg/kg·d s.c., the 20th day
[6] = high dose 174 μg/kg·d s.c., the 24th day
[7] = high dose 174 μg/kg·d s.c., the 28th day
[8] = high dose 174 μg/kg·d s.c., the 32nd day
[9] = low dose 43.5 μg/kg·d s.c., the 4th day
[10] = low dose 43.5 μg/kg·d s.c., the 8th day
[11] = low dose 43.5 μg/kg·d s.c., the 12th day
[12] = low dose 43.5 μg/kg·d s.c., the 16th day
[13] = low dose 43.5 μg/kg·d s.c., the 20th day
[14] = low dose 43.5 μg/kg·d s.c., the 24th day
[15] = low dose 43.5 μg/kg·d s.c., the 28th day
[16] = low dose 43.5 μg/kg·d s.c., the 32nd day
[17] = medium dose 87 μg/kg·d s.c., the 4th day
[18] = medium dose 87 μg/kg·d s.c., the 8th day
[19] = medium dose 87 μg/kg·d s.c., the 12th day
[20] = medium dose 87 μg/kg·d s.c., the 16th day
[21] = medium dose 87 μg/kg·d s.c., the 20th day
[22] = medium dose 87 μg/kg·d s.c., the 24th day
[23] = medium dose 87 μg/kg·d s.c., the 28th day
[24] = medium dose 87 μg/kg·d s.c., the 32nd day

GQTYTSG [Peptide A] was tested, and the “arthritis lesion (histopathology) after administration” value (all dose groups, effect in descending order high, medium, low) was “reduced in different degrees”, the “ankle joint swelling value” [1] was 7.3 ± 1.8 mm and the “inhibition rate of ankle joint swelling” value [1] was “(20.6%)”. For the same substance, the “ankle joint swelling value” [2] was 8.2 ± 1.5 mm, the “inhibition rate of ankle joint swelling” value [2] was “(34.4%)” and the “ankle joint swelling value” [3] was 9.5 ± 2.1 mm. For the same substance, the “inhibition rate of ankle joint swelling” value [3] was “(30.1%)”, the “ankle joint swelling value” [4] was 9.8 ± 1.7 mm and the “inhibition rate of ankle joint swelling” value [4] was “(35.5%)”. The “ankle joint swelling value” [5] was 10.2 ± 1.9 mm, the “inhibition rate of ankle joint swelling” value [5] was “(41.4%)” and the “ankle joint swelling value” [6] was 10.5 ± 1.9 mm. The “inhibition rate of ankle joint swelling” value [6] was “(44.1%)”, the “ankle joint swelling value” [7] was 11.4 ± 1.6 mm and the “inhibition rate of ankle joint swelling” value [7] was “(38.7%)”. For the same substance, the “ankle joint swelling value” [8] was 12.0 ± 1.6 mm, the “inhibition rate of ankle joint swelling” value [8] was “(30.6%)” and the “Lesion scoring ( X ± SD), joint lesion severity” value (“Lesion scoring ( X ± SD)” below) (high dose group (174 μg/kg·d s.c.)) was 3.73 ± 1.57. For the same substance, the “inhibition rate to the joint swelling” value (high dose group (174 μg/kg·d)) was about 45%, the “state of joint synovial tissue (HE sections)” value (from here on “state of joint synovial tissue”) (high dose group, FIGS. 5a and 5b) was “mild congestion of local synovial tissue of the rats, having no significant surface proliferation” and the “joint swelling compared with rats of the model group” value (high, medium and low dose groups, observation) was “significantly reduced joint swelling”. For the same substance, the skin ulcer symptom (high, medium and low dose groups, part of model rats had skin ulcers on the 24th day) was “did not have skin ulcer symptom”, the “ankle joint swelling value” [9] was 8.8 ± 1.6 mm and the “inhibition rate of ankle joint swelling” value [9] was “(4.3%)”. For the same substance, the “ankle joint swelling value” [10] was 10.2 ± 1.7 mm, the “inhibition rate of ankle joint swelling” value [10] was “(18.4%)” and the “ankle joint swelling value” [11] was 11.2 ± 1.8 mm. The “inhibition rate of ankle joint swelling” value [11] was “(17.6%)”, the “ankle joint swelling value” [12] was 12.3 ± 1.8 mm and the “inhibition rate of ankle joint swelling” value [12] was “(19.1%)”. For the same substance, the “ankle joint swelling value” [13] was 13.4 ± 1.7 mm, the “inhibition rate of ankle joint swelling” value [13] was “(23.0%)” and the “ankle joint swelling value” [14] was 14.6 ± 1.8 mm. The “inhibition rate of ankle joint swelling” value [14] was “(22.3%)”, the “ankle joint swelling value” [15] was 14.8 ± 2.2 mm and the “inhibition rate of ankle joint swelling” value [15] was “(20.4%)”. For the same substance, the “ankle joint swelling value” [16] was 14.5 ± 1.8 mm, the “inhibition rate of ankle joint swelling” value [16] was “(16.2%)” and the “Lesion scoring ( X ± SD)” value (low dose group (43.5 μg/kg·d s.c.)) was 4.36 ± 1.15. The “state of joint synovial tissue” value (low dose group, FIGS. 3a and 3b) was “mild congestion and significant proliferation and surface projection of the synovial tissue, as well as mild degeneration of covering synovial cells”, the “ankle joint swelling value” [17] was 8.2 ± 1.5 mm and the “inhibition rate of ankle joint swelling” value [17] was “(10.9%)”. For the same substance, the “ankle joint swelling value” [18] was 9.3 ± 2.2 mm, the “inhibition rate of ankle joint swelling” value [18] was “(25.6%)” and the “ankle joint swelling value” [19] was 9.9 ± 1.8 mm. The “inhibition rate of ankle joint swelling” value [19] was “(27.2%)”, the “ankle joint swelling value” [20] was 11.4 ± 1.6 mm and the “inhibition rate of ankle joint swelling” value [20] was “(25.0%)”. For the same substance, the “ankle joint swelling value” [21] was 12.2 ± 1.7 mm, the “inhibition rate of ankle joint swelling” value [21] was “(29.9%)” and the “ankle joint swelling value” [22] was 12.6 ± 2.1 mm. The “inhibition rate of ankle joint swelling” value [22] was “(33.0%)”, the “ankle joint swelling value” [23] was 13.7 ± 1.8 mm and the “inhibition rate of ankle joint swelling” value [23] was “(26.3%)”. The “ankle joint swelling value” [24] was 13.9 ± 1.7 mm, the “inhibition rate of ankle joint swelling” value [24] was “(19.6%)” and the “Lesion scoring ( X ± SD)” value (medium dose group (87 μg/kg·d s.c.)) was 4.12 ± 1.28. The “state of joint synovial tissue” value (medium dose group, FIGS. 4a and 4b) was “mild congestion of local synovial tissue and infiltration of few inflammatory cells; also recorded: mild congestion, uneven surface and mild proliferation of the synovial tissue”.
